Experimental data as given in patent EP0514268A1, “Substituted amino acid azetidinyl pyridone derivatives, their preparation and use as medicines” (LABORATORIOS DEL DR. ESTEVE, S.A., priority 1991, dated 1992).
≈ marks a conversion by molar mass, not a printed value.

Key:
[1] = tested on: Strep. faecalis ATCC 10541; assay: Antimicrobial activity, agar dilution; assay type: cell-based, Streptococcus faecalis; settings: Enterococcus faecalis, ATCC10541, 20 h, Agar Dextrose dilutions, 37°C, 20 heures, read-out: Activité pharmacologique antimicrobienne (concentrations)
Source text: (§1) L'activité pharmacologique antimicrobienne de ces composés a été étudiée selon les références exposées ci-dessous.
(§2) Activité pharmacologique antimicrobienne : G.L. Daquet et Y.A. Chabbect, techniques en bactériologie, Vol. 3, Flammarion Médecine-Sciences, Paris 1972, et W.B. Hugo et A.D. Rusell, Pharmaceutical Microbiology, Blackwell Scientific Publications, London, 1977.
(§3) Milieu de culture et solvant : Agar d'antibiotiques n° 1 (Oxoid CM 327) Bouillon de triptone-soja (Oxoid CM 129) Solution Physiologique Ringer 1/4 (Oxoid BR 52) Agar Dextrose (BBL 11165)
(§4) Microorganismes : "Bacillus subtilis" ATCC 6633 "Citrobacter freundii" ATCC 112606 "Enterobacter aerogenes" ATCC 15038 "Enterobacter cloacae" ATCC 23355 "Bacillus cereus" ATCC 1178 "Escherichia coli" ATCC 10799 "Escherichia coli" ATCC 23559 "Klebsiella pneumoniae" ATCC 10031 "Proteus vulgaris" ATCC 8427 "Morg. morganii" ATCC 8019 "Pseudomonas aeruginosa" ATCC 9721 "Pseudomonas aeruginosa" ATCC 10145 "Salmonella typhimurium" ATCC 14028 "Salmonella typhimurium" ATCC 6539 "Serratia marcescens" ATCC 13880 "Shigella flexnerii" ATCC 12022 "Staphylococcusepidermis" ATCC 155-1 "Staphylococcus aureus" ATCC 25178 "Streptococcus faecalis" ATCC 10541.
(§5) Chacun des microorganismes est ensemencé par strie dans des tubes d'Agar d'antibiotiques n° 1, et mis en incubation pendant 20 heures à 37°C. Ensuite, on prend une anse de culture, on ensemence dans un bouillon de Triptone-soja et on incube pendant 20 heures à 37°C. On dilue à 1/4 la culture obtenue avec une solution physiologique Ringer, de façon à obtenir une suspension normalisée de […] pour chaque organisme.
(§6) A partir d'une solution de 100 µg/ml, chaque produit est dilué dans l'Agar Dextrose (préalablement fondu et maintenu à 50°C) par dilutions successives de façon à obtenir les concentrations suivantes : 64-32-16-8-4-2-1-0,5-0,25-0,125 µg de dérivé/ml du milieu.
(§7) Postérieurement, chaque concentration de chaque produit est répartie dans des boîtes de Petri de 10 cm de diamètre, à raison de 10 ml de milieu par boîte et autant de boîtes que de microorganismes à tester.
(§8) Une fois le milieu refroidi, les boîtes sont ensemencées avec les inoculations à raison de 0,4 ml d'inoculation par boîte. On les étend avec une anse de Driglasky et on recueille le surnageant. Les boîtes ensemencées sont incubées à 37°C pendant 20 heures.
(§9) Les résultats obtenus sont décrits dans les tableaux suivants. Les concentrations sont données en µg/ml.

[2] = tested on: Ps. aeruginosa ATCC 10145; assay: Antimicrobial activity, agar dilution; assay type: cell-based; settings: Pseudomonas aeruginosa, ATCC10145, 20 h, Agar Dextrose dilutions, 37°C, 20 heures, read-out: Activité pharmacologique antimicrobienne (concentrations)
Source text: as §1, §2, §3, §4, §5, §6, §7, §8, §9

[3] = tested on: Bacillus cereus ATCC 11778; assay: Antimicrobial activity, agar dilution; assay type: cell-based; settings: Bacillus cereus, ATCC11778, 20 h, Agar Dextrose dilutions, 37°C, 20 heures, read-out: Activité pharmacologique antimicrobienne (concentrations)
Source text: as §1, §2, §3, §4, §5, §6, §7, §8, §9

[4] = tested on: Staph. epidermidis ATCC 155-1; assay: Antimicrobial activity, agar dilution; assay type: cell-based; settings: Staphylococcus epidermidis, ATCC155, 20 h, Agar Dextrose dilutions, 37°C, 20 heures, read-out: Activité pharmacologique antimicrobienne (concentrations)
Source text: as §1, §2, §3, §4, §5, §6, §7, §8, §9

[5] = tested on: Escherichia coli ATCC 10799; assay: Antimicrobial activity, agar dilution; assay type: cell-based; settings: Escherichia coli, ATCC10799, 20 h, Agar Dextrose dilutions, 37°C, 20 heures, read-out: Activité pharmacologique antimicrobienne (concentrations)
Source text: as §1, §2, §3, §4, §5, §6, §7, §8, §9

[6] = tested on: Shigella flexnerii ATCC 12022; assay: Antimicrobial activity, agar dilution; assay type: cell-based; settings: ATCC12022, 20 h, Agar Dextrose dilutions, 37°C, 20 heures, read-out: Activité pharmacologique antimicrobienne (concentrations)
Source text: as §1, §2, §3, §4, §5, §6, §7, §8, §9

Morg. morganii ATCC 8019 = assay: Antimicrobial activity, agar dilution; assay type: cell-based; settings: Morganella morganii, ATCC8019, 20 h, Agar Dextrose dilutions, 37°C, 20 heures, read-out: Activité pharmacologique antimicrobienne (concentrations)
Source text: as §1, §2, §3, §4, §5, §6, §7, §8, §9

[7] = tested on: Escherichia coli ATCC 23559; assay: Antimicrobial activity, agar dilution; assay type: cell-based; settings: Escherichia coli, ATCC23559, 20 h, Agar Dextrose dilutions, 37°C, 20 heures, read-out: Activité pharmacologique antimicrobienne (concentrations)
Source text: as §1, §2, §3, §4, §5, §6, §7, §8, §9

Sal. typhi ATCC 6539 = assay: Antimicrobial activity, agar dilution; assay type: cell-based; settings: Salmonella enterica, 20 h, read-out: Activité pharmacologique antimicrobienne (concentrations)
Source text: as §1, §2, §3, §4, §5, §6, §7, §8, §9

[8] = tested on: Proteus vulgaris ATCC 8427; assay: Antimicrobial activity, agar dilution; assay type: cell-based; settings: Proteus vulgaris, ATCC8427, 20 h, Agar Dextrose dilutions, 37°C, 20 heures, read-out: Activité pharmacologique antimicrobienne (concentrations)
Source text: as §1, §2, §3, §4, §5, §6, §7, §8, §9

[9] = tested on: Bacillus subtilis ATCC 6633; assay: Antimicrobial activity, agar dilution; assay type: cell-based; settings: ATCC6633, 20 h, Agar Dextrose dilutions, 37°C, 20 heures, read-out: Activité pharmacologique antimicrobienne (concentrations)
Source text: as §1, §2, §3, §4, §5, §6, §7, §8, §9

Ps. aeruginosa ATCC 9721 = assay: Antimicrobial activity, agar dilution; assay type: cell-based; settings: Pseudomonas aeruginosa, ATCC9721, 20 h, Agar Dextrose dilutions, 37°C, 20 heures, read-out: Activité pharmacologique antimicrobienne (concentrations)
Source text: as §1, §2, §3, §4, §5, §6, §7, §8, §9

Ent. cloacae ATCC 23355 = assay: Antimicrobial activity, agar dilution; assay type: cell-based, Enterobacter cloacae; settings: Enterobacter cloacae, ATCC23355, 20 h, Agar Dextrose dilutions, 37°C, 20 heures, read-out: Activité pharmacologique antimicrobienne (concentrations)
Source text: as §1, §2, §3, §4, §5, §6, §7, §8, §9

[10] = tested on: Sal. typhimurium ATCC 14028; assay: Antimicrobial activity, agar dilution; assay type: cell-based, Salmonella typhimurium; settings: Salmonella enterica, 20 h, Agar Dextrose dilutions, 37°C, 20 heures, read-out: Activité pharmacologique antimicrobienne (concentrations)
Source text: as §1, §2, §3, §4, §5, §6, §7, §8, §9

Staph. aureus ATCC 25178 = assay: Antimicrobial activity, agar dilution; assay type: cell-based, Staphylococcus aureus; settings: Staphylococcus aureus, ATCC25178, 20 h, Agar Dextrose dilutions, 37°C, 20 heures, read-out: Activité pharmacologique antimicrobienne (concentrations)
Source text: as §1, §2, §3, §4, §5, §6, §7, §8, §9

[11] = tested on: Serr. marcescens ATCC 13880; assay: Antimicrobial activity, agar dilution; assay type: cell-based, Serratia marcescens; settings: Serratia marcescens, ATCC13880, 20 h, Agar Dextrose dilutions, 37°C, 20 heures, read-out: Activité pharmacologique antimicrobienne (concentrations)
Source text: as §1, §2, §3, §4, §5, §6, §7, §8, §9

[12] = tested on: Kleb. pneumoniae ATCC 10031; assay: Antimicrobial activity, agar dilution; assay type: cell-based, Klebsiella pneumoniae; settings: Klebsiella pneumoniae, ATCC10031, 20 h, Agar Dextrose dilutions, 37°C, 20 heures, read-out: Activité pharmacologique antimicrobienne (concentrations)
Source text: as §1, §2, §3, §4, §5, §6, §7, §8, §9

[13] = Solubility in water and at pH 7.4; assay type: physicochemical
Source text: Un grand nombre des composés de l'invention manifestent une augmentation de la solubilité dans l'eau ainsi que de la solubilité à pH 7,4 lorsqu'on compare avec les composés de référence. L'augmentation de solubilité au pH physiologique peut favoriser l'absorption du produit et la solubilité élevée dans l'eau permet l'administration du composé par voie parentérale.

[14] = tested on: Citr. freundii ATCC 11606; assay: Antimicrobial activity, agar dilution; assay type: cell-based, Citrobacter freundii; settings: Citrobacter freundii, ATCC11606, 20 h, Agar Dextrose dilutions, 37°C, 20 heures, read-out: Activité pharmacologique antimicrobienne (concentrations)
Source text: as §1, §2, §3, §4, §5, §6, §7, §8, §9

[15] = tested on: Ent. aerogenes ATCC 15038; assay: Antimicrobial activity, agar dilution; assay type: cell-based, Enterobacter aerogenes; settings: Klebsiella aerogenes, ATCC15038, 20 h, Agar Dextrose dilutions, 37°C, 20 heures, read-out: Activité pharmacologique antimicrobienne (concentrations)
Source text: as §1, §2, §3, §4, §5, §6, §7, §8, §9

| SMILES | MIC [1] | MIC [2] | MIC [3] | MIC [4] | MIC [5] | MIC [6] | MIC (Morg. morganii ATCC 8019) | MIC [7] | MIC (Sal. typhi ATCC 6539) | MIC [8] | MIC [9] | MIC (Ps. aeruginosa ATCC 9721) | MIC (Ent. cloacae ATCC 23355) | MIC [10] | MIC (Staph. aureus ATCC 25178) | MIC [11] | MIC [12] | solubility ([13]; pH 7) | solubility ([13]; water) | MIC [14] | further results |
| --- | --- | --- | --- | --- | --- | --- | --- | --- | --- | --- | --- | --- | --- | --- | --- | --- | --- | --- | --- | --- | --- |
| C[C@H](N)C(=O)N[C@@H](C)C(=O)N[C@@H]1CN(c2nc3c(cc2F)c(=O)c(C(=O)O)cn3C2CC2)[C@H]1C [Exemple 4aAA] | > 16 µg/mL | > 16 µg/mL | 16 µg/mL (≈ 33.7 µM) | 8 µg/mL (≈ 16.9 µM) | 2 µg/mL (≈ 4.22 µM) | 2 µg/mL (≈ 4.22 µM) | 4 µg/mL (≈ 8.43 µM) | 2 µg/mL (≈ 4.22 µM) | 2 µg/mL (≈ 4.22 µM) | 8 µg/mL (≈ 16.9 µM) | 1 µg/mL (≈ 2.11 µM) | > 16 µg/mL | 2 µg/mL (≈ 4.22 µM) | 2 µg/mL (≈ 4.22 µM) | 4 µg/mL (≈ 8.43 µM) | 8 µg/mL (≈ 16.9 µM) | 8 µg/mL (≈ 16.9 µM) | > 500 µg/mL | > 500 µg/mL | 2 µg/mL (≈ 4.22 µM) | MIC [15]: 2 µg/mL (≈ 4.22 µM) |
| CC(C)C[C@H](N)C(=O)N[C@@H]1CN(c2nc3c(cc2F)c(=O)c(C(=O)O)cn3C2CC2)[C@H]1C [Exemple 4aL, chlorhydratede l'acide 7-[(2S,3R)-2-méthyl-3-Leu-amino-1-azétidinyl]-1-cyclopropyl-6-fluoro-1,4-dihydro-4-oxo-1,8-naphtyridine-3-carboxylique] | 2 µg/mL | 8 µg/mL | 0.12 µg/mL | 0.25 µg/mL | 0.12 µg/mL | 0.06 µg/mL | 0.25 µg/mL | 0.06 µg/mL | 0.12 µg/mL | 0.25 µg/mL | 0.12 µg/mL | 2 µg/mL | 0.12 µg/mL | 0.12 µg/mL | 0.25 µg/mL | 0.25 µg/mL | 0.06 µg/mL | > 500 µg/mL | > 500 µg/mL | 0.12 µg/mL | MIC [15]: 0.12 µg/mL |
| C[C@H](N)C(=O)NC1CN(c2nc3c(cc2F)c(=O)c(C(=O)O)cn3-c2ccc(F)cc2F)C1 [Exemple 4bA, chlorhydratede l'acide 7-(3-Ala-amino-1-azétidinyl)-1-(2,4-difluorophényl)-6-fluoro-1,4-dihydro-4-oxo-1,8-naphtyridine-3-carboxylique] | 8 µg/mL | 16 µg/mL | 4 µg/mL | 4 µg/mL | 2 µg/mL | 1 µg/mL | 2 µg/mL | 1 µg/mL | 1 µg/mL | 8 µg/mL | 0.5 µg/mL | 8 µg/mL | 1 µg/mL | 2 µg/mL | 1 µg/mL | 8 µg/mL | 1 µg/mL | 66.9 µg/mL | 128 µg/mL | 1 µg/mL | MIC [15]: 1 µg/mL |
